In patent publication US4248863A, “Antibiotics saframycins A, B, C, D and E and process for producing the same” (priority 1977, dated 1981):
In brackets after ≈: the same amount, converted by molar mass.

Tests used:
Rhodotorula glutinis = experiment: Antimicrobial spectrum, MIC (Table 4); details: Rhodotorula glutinis, 48 h
Aspergillus oryzae = experiment: Antimicrobial spectrum, MIC (Table 4); details: Aspergillus oryzae, 48 h
Klebsiella pneumoniae = experiment: Antimicrobial spectrum, MIC (Table 4); type: cell-based; details: Klebsiella pneumoniae; 1% glucose nutrient agar, 37° C., 24 or 48 hours; read-out: MIC
Mucor mucedo = experiment: Antimicrobial spectrum, MIC (Table 4); details: Mucor mucedo, 48 h
Candida albicans = experiment: Antimicrobial spectrum, MIC (Table 4); details: Candida albicans, 48 h
[1] = tested on: Staphylococcus salivarius; experiment: Antimicrobial spectrum, MIC (Table 4); type: cell-based; details: Staphylococcus; 1% glucose nutrient agar, 37° C., 24 or 48 hours; read-out: MIC
Bacillus subtilis = experiment: Antimicrobial spectrum, MIC (Table 4); type: cell-based; details: Bacillus subtilis; 1% glucose nutrient agar, 37° C., 24 or 48 hours; read-out: MIC
Ehrlich ascites tumor = experiment: Activity against Ehrlich ascites tumor in DDY mice; type: in vivo; details: 1×10^5 cells, initiated 24 hours after implantation, 4 days
Aspergillus niger = experiment: Antimicrobial spectrum, MIC (Table 4); details: Aspergillus niger, 48 h
Staphylococcus citreus = experiment: Antimicrobial spectrum, MIC (Table 4); type: cell-based; details: Staphylococcus; 1% glucose nutrient agar, 37° C., 24 or 48 hours; read-out: MIC
Serratia marcescens = experiment: Antimicrobial spectrum, MIC (Table 4); type: cell-based; details: Serratia marcescens; 1% glucose nutrient agar, 37° C., 24 or 48 hours; read-out: MIC
Saccharomyces cerevisiae = experiment: Antimicrobial spectrum, MIC (Table 4); details: Saccharomyces cerevisiae, 48 h
Streptococcus faecalis = experiment: Antimicrobial spectrum, MIC (Table 4); type: cell-based; details: Enterococcus faecalis; 1% glucose nutrient agar, 37° C., 24 or 48 hours; read-out: MIC
Mycobacterium phlei = experiment: Antimicrobial spectrum, MIC (Table 4); type: cell-based; details: Mycolicibacterium phlei; 3% glycerol nutrient agar for acid-fast bacteria, 37° C., 24 or 48 hours; read-out: MIC
[2] = tested on: Trichophyton mentagrophytes; experiment: Antimicrobial spectrum, MIC (Table 4); details: Trichophyton mentagrophytes, 72 h
Nocardia asteroides = experiment: Antimicrobial spectrum, MIC (Table 4); type: cell-based; details: Nocardia asteroides; 37° C., 24 or 48 hours; read-out: MIC
Brucella abortus = experiment: microbe, parasite or virus in culture; type: cell-based; details: Brucella abortus
[3] = tested on: Corynebacterium dephtheriae; experiment: Antimicrobial spectrum, MIC (Table 4); type: cell-based; details: Corynebacterium; 1% glucose nutrient agar, 37° C., 24 or 48 hours; read-out: MIC
Pseudomonas aeruginosa = experiment: Antimicrobial spectrum, MIC (Table 4); type: cell-based; details: Pseudomonas aeruginosa; 1% glucose nutrient agar, 37° C., 24 or 48 hours; read-out: MIC
Escherichia coli = experiment: Antimicrobial spectrum, MIC (Table 4); type: cell-based; details: Escherichia coli; 1% glucose nutrient agar, 37° C., 24 or 48 hours; read-out: MIC
stomach carcinoma = experiment: Effect against human tumors heterotransplanted to nude mice; type: in vivo, human tumor in nude mice; details: human tumor heterotransplanted to nude mice
Salmonella typhimurium = experiment: Antimicrobial spectrum, MIC (Table 4); type: cell-based; details: Salmonella enterica, TYPHIMURIUM; 1% glucose nutrient agar, 37° C., 24 or 48 hours; read-out: MIC
Bacillus cereus = experiment: Antimicrobial spectrum, MIC (Table 4); type: cell-based; details: Bacillus cereus; 1% glucose nutrient agar, 37° C., 24 or 48 hours; read-out: MIC
Staphylococcus albus = experiment: Antimicrobial spectrum, MIC (Table 4); type: cell-based; details: Staphylococcus; 1% glucose nutrient agar, 37° C., 24 or 48 hours; read-out: MIC
Micrococcus luteus = experiment: Antimicrobial spectrum, MIC (Table 4); type: cell-based; details: Micrococcus luteus; 1% glucose nutrient agar, 37° C., 24 or 48 hours; read-out: MIC
Streptococcus pyogenes = experiment: Antimicrobial spectrum, MIC (Table 4); type: cell-based; details: Streptococcus pyogenes; blood agar, 37° C., 24 or 48 hours; read-out: MIC
Mycobacterium avium = experiment: Antimicrobial spectrum, MIC (Table 4); type: cell-based; details: Mycobacterium avium; 3% glycerol nutrient agar for acid-fast bacteria, 37° C., 24 or 48 hours; read-out: MIC
[4] = tested on: Staphylococcus aureus Smith; experiment: Antimicrobial spectrum, MIC (Table 4); type: cell-based; details: Staphylococcus aureus; 1% glucose nutrient agar, 37° C., 24 or 48 hours; read-out: MIC
[5] = tested on: Streptococcus pyogenes 090R; experiment: Antimicrobial spectrum, MIC (Table 4); type: cell-based; details: Streptococcus pyogenes, 090R; blood agar, 37° C., 24 or 48 hours; read-out: MIC
[6] = tested on: mouse lymphocytic leukemia L1210; experiment: Effect on mouse lymphocytic leukemia L1210 in vivo; details: DBF1 mice, 1×10^5 cells intraperitoneal; 1.5 mg/kg daily for 2 days intraperitoneal, started 3 hours after implantation
Description: When DDY mice were implanted with 1×10^5 cells of Ehrlich ascites tumor and daily intraperitoneal treatment of saframycin A at a dose of 0.5 mg/kg was initiated 24 hours after tumor implantation for 4 days, 30% of mice were cured and survived more than 30 days. With a dose of 1.0 mg/kg, 60% of mice was cured. The effects of saframycin A by intraperitoneal treatment on mouse lymphocytic leukemia L1210 and lymphoid leukemia P388 were studied with DBF1 mice. […] With P388 tumor, the inoculum size of 1×10^6 cells was employed and the treatment was initiated after 24 hours. Saframycin A at a daily dose of 0.75 mg/kg for 10 days produced T/C of 219%. The effect of saframycin A was then studied against human tumors, two lines of uterine cervical carcinoma, melanoma, oat cell carcinoma and stomach carcinoma, heterotransplanted to nude mice.

[7] = tested on: Shigella dysenteriae Shiga; experiment: microbe, parasite or virus in culture; type: cell-based; details: Shigella dysenteriae
[8] = tested on: uterine cervical carcinoma; experiment: Effect against human tumors heterotransplanted to nude mice; type: in vivo, human tumor in nude mice; details: human tumor heterotransplanted to nude mice
Penicillium glaucum = experiment: Antimicrobial spectrum, MIC (Table 4); details: Penicillium, 48 h
[9] = tested on: Staphylococcus aureus 209P; experiment: Antimicrobial spectrum, MIC (Table 4); type: cell-based; details: Staphylococcus aureus, 209P; 1% glucose nutrient agar, 37° C., 24 or 48 hours; read-out: MIC
Mycobacterium sp. 607 = experiment: Antimicrobial spectrum, MIC (Table 4); type: cell-based; details: Mycobacterium, SP.607; 3% glycerol nutrient agar for acid-fast bacteria, 37° C., 24 or 48 hours; read-out: MIC
Toxicity in mice = details: mouse, in vivo
Corynebacterium xerosis = experiment: Antimicrobial spectrum, MIC (Table 4); type: cell-based; details: Corynebacterium xerosis; 1% glucose nutrient agar, 37° C., 24 or 48 hours; read-out: MIC

COC1=C(C)C(=O)C2=C(C1=O)C1C3CC4=C(C(=O)C(OC)=C(C)C4=O)C(CNC(=O)C(C)=O)N3C(C#N)C(C2)N1C (stereo not drawn) [saframycin A]
MIC (Rhodotorula glutinis): > 100 µg/mL | MIC (Aspergillus oryzae): > 100 µg/mL | MIC (Klebsiella pneumoniae): 6.25 µg/mL (≈ 11.1 µM) | MIC (Mucor mucedo): > 100 µg/mL | MIC (Candida albicans): > 100 µg/mL | MIC [1]: 6.25 µg/mL (≈ 11.1 µM) | MIC (Bacillus subtilis): 0.1 µg/mL (≈ 0.178 µM) | mice cured and survived more than 30 days (Ehrlich ascites tumor; 0.5 mg/kg daily intraperitoneal): 30% | mice cured (Ehrlich ascites tumor; 1.0 mg/kg daily intraperitoneal): 60% | MIC (Aspergillus niger): > 100 µg/mL | MIC (Staphylococcus citreus): 0.1 µg/mL (≈ 0.178 µM) | MIC (Serratia marcescens): > 100 µg/mL | MIC (Saccharomyces cerevisiae): > 100 µg/mL | MIC (Streptococcus faecalis): 6.25 µg/mL (≈ 11.1 µM) | MIC (Mycobacterium phlei): 25 µg/mL (≈ 44.4 µM) | MIC [2]: > 100 µg/mL | MIC (Nocardia asteroides): 6.25 µg/mL (≈ 11.1 µM) | MIC (Brucella abortus): 6.25 µg/mL (≈ 11.1 µM) | MIC [3]: < 0.003 µg/mL | MIC (Pseudomonas aeruginosa): > 100 µg/mL | MIC (Escherichia coli): 50 µg/mL (≈ 88.9 µM) | activity against stomach carcinoma (stomach carcinoma): selectively active on cervical carcinoma and stomach carcinoma producing the inhibition of tumor growth and significant histological changes in tumor tissue | MIC (Salmonella typhimurium): 100 µg/mL (≈ 178 µM) | MIC (Bacillus cereus): 12.5 µg/mL (≈ 22.2 µM) | MIC (Staphylococcus albus): 0.1 µg/mL (≈ 0.178 µM) | MIC (Micrococcus luteus): 0.05 µg/mL (≈ 0.0889 µM) | MIC (Streptococcus pyogenes): 0.78 µg/mL (≈ 1.39 µM) | MIC (Mycobacterium avium): 12.5 µg/mL (≈ 22.2 µM) | MIC [4]: 0.05 µg/mL (≈ 0.0889 µM) | MIC [5]: 6.25 µg/mL (≈ 11.1 µM) | T/C (survival period of treated group over survival period of control group) [6]: 183% | MIC [7]: 25 µg/mL (≈ 44.4 µM) | activity against cervical carcinoma [8]: selectively active on cervical carcinoma and stomach carcinoma producing the inhibition of tumor growth and significant histological changes in tumor tissue | MIC (Penicillium glaucum): 50 µg/mL (≈ 88.9 µM) | MIC [9]: 0.1 µg/mL (≈ 0.178 µM) | MIC (Mycobacterium sp. 607): 12.5 µg/mL (≈ 22.2 µM) | LD50 (Toxicity in mice; ip): 40 mg/kg | LD50 (Toxicity in mice; iv): 12 mg/kg | MIC (Corynebacterium xerosis): < 0.003 µg/mL
